Consider one substance from patent US11497788B2, “Supramolecular glycosaminoglycans” (Northwestern University, priority 2015, dated 2022).

One test addresses T1, BMP-2 (Homo sapiens, UniProt P12643).
T1 construct: purchased Medtronic Sofamor Danek (Minneapolis, Minn.)
T1 sequence (P12643 283-396): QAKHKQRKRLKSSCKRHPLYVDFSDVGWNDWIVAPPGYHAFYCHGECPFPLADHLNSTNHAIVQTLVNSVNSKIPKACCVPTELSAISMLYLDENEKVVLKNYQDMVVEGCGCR
As to the kind of experiment: BMP-2 stability assay (ELISA) in C2C12 culture. In kind it is cell-based. As to conditions: 75 ng/mL BMP-2; 0, 3, 9, 24 h. How it is done: BMP-2 Stability Assay: C2C12 cells were seeded at 150,000 cells/mL (500 μL/well in a 48-well plate) and incubated overnight. Following, the media was replaced with treatment media (75 ng/mL BMP-2 in the presence/absence of PA 1, PA 4, and monosaccharide 1. The media was collected at 0, 3, 9, and 24 h and stored at −80° C. prior to BMP-2 quantification. In addition, the cell monolayers were lysed at the indicated time with a 100 μL of M-PER Mammalian Protein Extraction Reagent, supplemented with 1×Halt Protease Inhibitor Cocktail, and also stored at −80° C. prior to BMP-2 quantification. The amount of BMP-2 present in the media and cell extracts was assayed using a BMP-2 Quantikine ELISA kit (R&D Systems) according to the manufacturer's specifications.
(ELISA stands for enzyme-linked immunosorbent assay.)

The subject of test [1] is rat posterolateral lumbar intertransverse spinal fusion model. Nature of the test: Rat posterolateral lumbar intertransverse spinal fusion model. In kind it is in vivo. How it is done:
Rat Posterolateral Lumbar Intertransverse Spinal Fusion: The study was approved by and conducted in line with the Institutional Animal Care and Use Committee (IACUC) policies and procedures. […] female Sprague-Dawley rats at ages 12-16 weeks were utilized. Animals were assigned to the following treatment groups: 1) 100 ng BMP-2, n=8; 2) 100 ng BMP-2 with PA 4 nanofibers, n=12; and 3) 100 ng BMP-2 with PA 1 nanofibers, n=12. The denoted BMP-2 dose refers to total growth factor amount implanted via two absorbable collagen sponges per animal. For instance, in the 100 ng BMP-2 control group, two collagen sponges (1.75×0.5×0.5 cm) were each impregnated with 50 ng BMP-2 in 100 uL saline containing 6 mM CaCl2, then implanted adjoining the L4-L5 transverse processes on either side of the spine. For PA groups, 100 uL of PA solutions (6 mM) were used in place of saline.
PA solutions were spun down, pipetted for homogeneous mixing, then mixed with BMP-2 at 10:1 vol. ratio to yield 6 mM PA with appropriate BMP-2 concentrations.
Surgical Procedures: Rats were maintained on a heating pad under continuous anesthesia with an isoflurane inhalational anesthetic delivery system, and they were monitored by an assistant for cardiac or respiratory difficulties throughout the procedure. Utilizing a previously-described surgical technique (refs. 23, 41; incorporated by reference in their entireties), the L4 and L5 transverse processes were exposed, irrigated with sterile gentamicin/saline solution, the superficial cortical layer decorticated with a high-speed burr, then collagen sponges with appropriate treatments were implanted bilaterally in the paraspinal musculature between the transverse processes. Afterwards, the fascia and skin incisions were closed, and rats were housed in separate cages.
Manual Palpation: Fusion was assessed via manual palpation following euthanasia at 8 weeks post-surgery. Spines were scored by three blinded observers using a previously established scoring system: 0=no bridging; 1=unilateral bridging; and 2=bilateral bridging (23, 41). To assess fusion rate, spines that received an average score of 1.0 or greater were considered successfully fused.
Micro-Computed Tomography: Synchrotron micro-computed tomography (μCT) was performed on representative samples at station 2-BM of the APS (42, 43). Due to the size constraint of the μCT set-up, harvested spines were sagittally cut along the midline of the vertebrate body, using a slow-speed diamond saw (ref. 43; incorporated by reference in its entirety). Data were acquired with 27 keV photons, projections were recorded every 0.12° over 180°, and reconstruction was on a 2,048×2,048 grid with isotropic 1.45 μm voxels using TomoPy (44). […]

For “3,4,6S-GlcNAc PA (VVAAEEK) [PA 1, glycosylated peptide amphiphile: Alkyne PA click-conjugated with trisulfated monosaccharide 1]”, the “BMP-2 stability in cell culture media” value with BMP-2 is reported as “improved BMP-2 stability”. Further, the “fusion scores, blind manual palpation” value in test [1] (100 ng BMP-2, 6 mM PA, 8 weeks, relative to PA 4 nanofibers or saline) is “highest fusion scores”. In test [1] (100 ng BMP-2, 6 mM PA, 8 weeks, score ≥1 = fused), this substance showed a fusion rate of 100%. Moreover, in test [1] (100 ng BMP-2 delivered with nanofibers), the “new bone formation, synchrotron micro-computed tomography” value is given as “formation of new bone connecting the transverse processes”. The “reduction of required GF (BMP-2) for spinal fusion” value in test [1] (100 ng versus 10 μg BMP-2 required in the model) was determined as 100 fold.
